What was measured:
[1] = system: human breast cancer cell line BT-474; experiment: Cytotoxicity assay (CellTiter-Glo, 72 h), BT-474; type: cell-based; settings: BT-474, 72 hours, read-out: Cytotoxicity (IC50, nM) BT-474
Procedure: Cytotoxicity of SDC-TRAP molecules was determined in three cancer cell lines. […] 80 μL of CellTiter-Glo was added to each well, followed by room temperature incubation in the dark for 15 minutes. Cell was determined by luminescence. IC50 was calculated using XLfit™ software.

[2] = Physical appearance of SDC-TRAP-0063 formulations and infusion solutions with different diluents and carbonate buffers; type: physicochemical; settings: for Observations (physical appearance): 5% v/v DMSO
Procedure: First, a stock solution of SDC-TRAP-0063 was prepared in DMSO at 22 mg/mL, then the required amount of tween 80 was added and mixed well.
The above formulation containing SDC-TRAP-0063 was diluted using either D5W, D5W (pH 10.5, adjusted with 4.55 mM NaOH) or carbonate buffer, pH 10) (final drug concentration.: 1 mg/mL SDC-TRAP-0063, 1.8% v/v Tween 80, 5% v/v DMSO). The physical observations on these solutions were noted before and filtration through 0.22μ PES filter and were further observed for 3 hr. Refer to the table below for summary of observations. Note: Carbonate buffer, pH 10 was prepared by mixing 0.1M sodium carbonate (27.5 mL) and 0.1M sodium bicarbonate (22.5 mL) and qs 200 mL with DIW. The total Na content of carbonate buffer was 39 mM.
A stock solution of SDC-TRAP-0063 was prepared in either DMSO or PEG-300. To prepare formulations containing DMSO and tween 80, required amount of tween 80 added to the stock of DMSO (containing SDC-TRAP-0063). The formulations were then was diluted with carbonate buffer, pH 10 (composition: add and mix 0.1M sodium carbonate (27.5 mL) and 0.1M sodium bicarbonate (22.5 mL) and qs 200 mL with DIW). The samples (prepared in glass vial) were mixed well and observed for physical appearance while stirring on a magnetic stirring plate at ambient. (Note-appropriate amounts of SDC-TRAP-0063, tween 80, DMSO and PEG-300, as applicable were used to prepare the solutions at the desired concentrations and drug concentrations at 1 mg/mL through 5 mg/mL as shown).
Carbonate buffers of different pH (pH 9-10) and ionic strengths (with higher (>2) Na contents that SDC-TRAP-0063 on molar basis) were prepared and used for diluting the DMSO/tween 80 formulation loaded with SDC-TRAP-0063 (as described in earlier section 3). The final concentrations of DMSO and tween 80 in the diluted carbonate buffer were 5% v/v and 1.8% v/v respectively. The drug concentration was kept constant (5 mg/mL) for all diluted samples.

Structure (SMILES): CCc1c2c(nc3ccc(OC(=O)N4CCC(CCn5ccc6cc(-n7c(O)nnc7-c7cc(C(C)C)c(O)cc7O)ccc65)CC4)cc13)-c1cc3c(c(=O)n1C2)COC(=O)[C@]3(O)CC [SDC-TRAP-0063, 4,11-diethyl-4-hydroxy-3,14-dioxo-3,4,12,14-tetrahydro-1H-pyrano[3′,4′:6,7]indolizino[1,2-b]quinolin-9-yl 4-(2-(5-(3-(2,4-dihydroxy-5-isopropylphenyl)-5-hydroxy-4H-1,2,4-triazol-4-yl)-1H-indol-1-yl)ethyl)piperidine-1-carboxylate]
- IC50 [1]: 320 nM
- physical appearance of stock solution ([2]; 22 mg/mL in DMSO, and after addition of tween 80): clear and homogenous
- physical appearance after dilution with carbonate buffer, pH 10 ([2]; 5% v/v DMSO + […] v/v tween 80, 1-5 mg/mL): clear at 2 hr of stirring
- Observations (physical appearance) ([2]; […] v/v Tween 80, carbonate buffer pH 10 (39 mM Na), 1 mg/mL, 30 min): Clear
- Observations (physical appearance) ([2]; […] v/v Tween 80, carbonate buffer pH 10 (39 mM Na), 1 mg/mL, 1 h): Clear
- Observations (physical appearance) ([2]; […] v/v Tween 80, carbonate buffer pH 10 (39 mM Na), 1 mg/mL, 2 h): Clear
- Observations (physical appearance) ([2]; […] v/v Tween 80, carbonate buffer pH 10 (39 mM Na), 1 mg/mL, Initial): Clear
- Observations (physical appearance) ([2]; […] v/v Tween 80, carbonate buffer pH 10 (39 mM Na), 1 mg/mL, Overnight): Clear
- Observations (physical appearance) ([2]; […] v/v Tween 80, carbonate buffer pH 10 (39 mM Na), 2 mg/mL, 30 min): Clear
- Observations (physical appearance) ([2]; […] v/v Tween 80, carbonate buffer pH 10 (39 mM Na), 2 mg/mL, 1 h): Clear
- Observations (physical appearance) ([2]; […] v/v Tween 80, carbonate buffer pH 10 (39 mM Na), 2 mg/mL, 2 h): Clear
- Observations (physical appearance) ([2]; […] v/v Tween 80, carbonate buffer pH 10 (39 mM Na), 2 mg/mL, Initial): Clear
- Observations (physical appearance) ([2]; […] v/v Tween 80, carbonate buffer pH 10 (39 mM Na), 2 mg/mL, Overnight): Clear
- Observations (physical appearance) ([2]; […] v/v Tween 80, carbonate buffer pH 10 (39 mM Na), 3 mg/mL, 30 min): Cloudy
- Observations (physical appearance) ([2]; […] v/v Tween 80, carbonate buffer pH 10 (39 mM Na), 3 mg/mL, 1 h): Clear
- Observations (physical appearance) ([2]; […] v/v Tween 80, carbonate buffer pH 10 (39 mM Na), 3 mg/mL, 2 h): Clear
- Observations (physical appearance) ([2]; […] v/v Tween 80, carbonate buffer pH 10 (39 mM Na), 3 mg/mL, Initial): Cloudy
- Observations (physical appearance) ([2]; […] v/v Tween 80, carbonate buffer pH 10 (39 mM Na), 3 mg/mL, Overnight): Clear
- Observations (physical appearance) ([2]; […] v/v Tween 80, carbonate buffer pH 10 (39 mM Na), 4 mg/mL, 30 min): Cloudy
- Observations (physical appearance) ([2]; […] v/v Tween 80, carbonate buffer pH 10 (39 mM Na), 4 mg/mL, 1 h): Cloudy
- Observations (physical appearance) ([2]; […] v/v Tween 80, carbonate buffer pH 10 (39 mM Na), 4 mg/mL, 2 h): Clear
- Observations (physical appearance) ([2]; […] v/v Tween 80, carbonate buffer pH 10 (39 mM Na), 4 mg/mL, Initial): Cloudy
- Observations (physical appearance) ([2]; […] v/v Tween 80, carbonate buffer pH 10 (39 mM Na), 4 mg/mL, Overnight): Clear
- Observations (physical appearance) ([2]; […] v/v Tween 80, carbonate buffer pH 10 (39 mM Na), 5 mg/mL, 30 min): Cloudy
- Observations (physical appearance) ([2]; […] v/v Tween 80, carbonate buffer pH 10 (39 mM Na), 5 mg/mL, 1 h): Cloudy
- Observations (physical appearance) ([2]; […] v/v Tween 80, carbonate buffer pH 10 (39 mM Na), 5 mg/mL, 2 h): Clear
- Observations (physical appearance) ([2]; […] v/v Tween 80, carbonate buffer pH 10 (39 mM Na), 5 mg/mL, Initial): Cloudy
- Observations (physical appearance) ([2]; […] v/v Tween 80, carbonate buffer pH 10 (39 mM Na), 5 mg/mL, Overnight): Clear
- Observations (physical appearance) ([2]; […] v/v Tween 80, 5 mg/mL, Carbonate buffer, pH 9.2 (25 mM Na), 1 h): Cloudy
- Observations (physical appearance) ([2]; […] v/v Tween 80, 5 mg/mL, Carbonate buffer, pH 9.2 (25 mM Na), 2 h): Cloudy
- Observations (physical appearance) ([2]; […] v/v Tween 80, 5 mg/mL, Carbonate buffer, pH 9.2 (25 mM Na), 3 h): Cloudy
- Observations (physical appearance) ([2]; […] v/v Tween 80, 5 mg/mL, Carbonate buffer, pH 9.2 (25 mM Na), Initial): Cloudy
- Observations (physical appearance) ([2]; […] v/v Tween 80, 5 mg/mL, Carbonate buffer, pH 9.2 (25 mM Na), Overnight): Cloudy
- Observations (physical appearance) ([2]; […] v/v Tween 80, 5 mg/mL, Carbonate buffer, pH 9.5 (26.5 mM Na), 1 h): Cloudy
- Observations (physical appearance) ([2]; […] v/v Tween 80, 5 mg/mL, Carbonate buffer, pH 9.5 (26.5 mM Na), 2 h): Cloudy
- Observations (physical appearance) ([2]; […] v/v Tween 80, 5 mg/mL, Carbonate buffer, pH 9.5 (26.5 mM Na), 3 h): Cloudy
- Observations (physical appearance) ([2]; […] v/v Tween 80, 5 mg/mL, Carbonate buffer, pH 9.5 (26.5 mM Na), Initial): Cloudy
- Observations (physical appearance) ([2]; […] v/v Tween 80, 5 mg/mL, Carbonate buffer, pH 9.5 (26.5 mM Na), Overnight): Cloudy
- Observations (physical appearance) ([2]; […] v/v Tween 80, 5 mg/mL, Carbonate buffer, pH 9.5 ([…] Na), 1 h): Cloudy
- Observations (physical appearance) ([2]; […] v/v Tween 80, 5 mg/mL, Carbonate buffer, pH 9.5 ([…] Na), 2 h): Cloudy
- Observations (physical appearance) ([2]; […] v/v Tween 80, 5 mg/mL, Carbonate buffer, pH 9.5 ([…] Na), 3 h): Clear
- Observations (physical appearance) ([2]; […] v/v Tween 80, 5 mg/mL, Carbonate buffer, pH 9.5 ([…] Na), Initial): Cloudy
- Observations (physical appearance) ([2]; […] v/v Tween 80, 5 mg/mL, Carbonate buffer, pH 9.5 ([…] Na), Overnight): Clear
- Observations (physical appearance) ([2]; […] v/v Tween 80, 5 mg/mL, Carbonate buffer, pH 10 (39 mM Na), 1 h): Cloudy
- Observations (physical appearance) ([2]; […] v/v Tween 80, 5 mg/mL, Carbonate buffer, pH 10 (39 mM Na), 2 h): Clear yellow
- Observations (physical appearance) ([2]; […] v/v Tween 80, 5 mg/mL, Carbonate buffer, pH 10 (39 mM Na), 3 h): Clear yellow
- Observations (physical appearance) ([2]; […] v/v Tween 80, 5 mg/mL, Carbonate buffer, pH 10 (39 mM Na), Initial): Cloudy
- Observations (physical appearance) ([2]; […] v/v Tween 80, 5 mg/mL, Carbonate buffer, pH 10 (39 mM Na), Overnight): Clear yellow
- Observations (physical appearance) ([2]; […] v/v Tween 80, 5 mg/mL, Carbonate buffer, pH 10 (155 mM Na), 1 h): Clear
- Observations (physical appearance) ([2]; […] v/v Tween 80, 5 mg/mL, Carbonate buffer, pH 10 (155 mM Na), 2 h): Clear yellow
- Observations (physical appearance) ([2]; […] v/v Tween 80, 5 mg/mL, Carbonate buffer, pH 10 (155 mM Na), 3 h): Clear yellow
- Observations (physical appearance) ([2]; […] v/v Tween 80, 5 mg/mL, Carbonate buffer, pH 10 (155 mM Na), Initial): Cloudy
- Observations (physical appearance) ([2]; […] v/v Tween 80, 5 mg/mL, Carbonate buffer, pH 10 (155 mM Na), Overnight): Clear yellow
- Observations (physical appearance) ([2]; carbonate buffer pH 10 (39 mM Na), 1 mg/mL, 30 min): Cloudy
- Observations (physical appearance) ([2]; carbonate buffer pH 10 (39 mM Na), 1 mg/mL, 1 h): Cloudy
- Observations (physical appearance) ([2]; carbonate buffer pH 10 (39 mM Na), 1 mg/mL, 6 h): Cloudy
- Observations (physical appearance) ([2]; carbonate buffer pH 10 (39 mM Na), 1 mg/mL, Initial): Cloudy
- Observations (physical appearance) ([2]; carbonate buffer pH 10 (39 mM Na), 1 mg/mL, Overnight): Clear yellow solution

From patent US10828315B2 (Madrigal Pharmaceuticals, Inc., priority 2013, dated 2020)
